Data as given in PubChem BioAssay AID2060892 (Molecular Pharmacology Branch, DTP, NCI, 2025).

Tested on: HOP-62 complex spheroids with HUVEC/MSC, viability
Experiment: Anticancer human tumor HOP-62 cell line growth inhibition [RAS];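 also: spheroids exposed to agents for seven days before readout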;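 as to viability, T/C: 100% = DMSO vehicle control viability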
Details: for IC50: curve of first compound; for viability, T/C: stronger effect = lower value
In short: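 Multi-cell-type spheroids: tumor cells plus HUVEC endothelial cells and mesenchymal stem cells. RAS-pathway inhibitors were combined with targeted agents, each dosed in half-log steps down from clinical Cmax, or from 10 microM when Cmax was unknown.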

[1] = second compound 0.000949 µM, first compound 0.00316 µM
[2] = second compound 0.000949 µM, first compound 0.01 µM
[3] = second compound 0.000949 µM, first compound 0.0316 µM
[4] = second compound 0.000949 µM, first compound 0.1 µM
[5] = second compound 0.000949 µM, first compound 0.316 µM
[6] = second compound 0.000949 µM, first compound 1 µM
[7] = second compound 0.003 µM, first compound 0.00316 µM
[8] = second compound 0.003 µM, first compound 0.01 µM
[9] = second compound 0.003 µM, first compound 0.0316 µM
[10] = second compound 0.003 µM, first compound 0.1 µM
[11] = second compound 0.003 µM, first compound 0.316 µM
[12] = second compound 0.003 µM, first compound 1 µM
[13] = second compound 0.00949 µM, first compound 0.00316 µM
[14] = second compound 0.00949 µM, first compound 0.01 µM
[15] = second compound 0.00949 µM, first compound 0.0316 µM
[16] = second compound 0.00949 µM, first compound 0.1 µM
[17] = second compound 0.00949 µM, first compound 0.316 µM
[18] = second compound 0.00949 µM, first compound 1 µM
[19] = second compound 0.03 µM, first compound 0.00316 µM
[20] = second compound 0.03 µM, first compound 0.01 µM
[21] = second compound 0.03 µM, first compound 0.0316 µM
[22] = second compound 0.03 µM, first compound 0.1 µM
[23] = second compound 0.03 µM, first compound 0.316 µM
[24] = second compound 0.03 µM, first compound 1 µM
[25] = second compound 0.0949 µM, first compound 0.00316 µM
[26] = second compound 0.0949 µM, first compound 0.01 µM
[27] = second compound 0.0949 µM, first compound 0.0316 µM
[28] = second compound 0.0949 µM, first compound 0.1 µM
[29] = second compound 0.0949 µM, first compound 0.316 µM
[30] = second compound 0.0949 µM, first compound 1 µM
[31] = second compound 0.3 µM, first compound 0.00316 µM
[32] = second compound 0.3 µM, first compound 0.01 µM
[33] = second compound 0.3 µM, first compound 0.0316 µM
[34] = second compound 0.3 µM, first compound 0.1 µM
[35] = second compound 0.3 µM, first compound 0.316 µM
[36] = second compound 0.3 µM, first compound 1 µM

In the case of `C=CC(=O)Nc1cc(Nc2nccc(-c3cn(C)c4ccccc34)n2)c(OC)cc1N(C)CCN(C)C` + CCn1c(-c2cccnc2C(C)OC)c2c3cc(ccc31)N1CCOC(CC(NC(=O)C(C(C)C)N(C)C(=O)C3(F)CCN(C(=O)C#CC(C)(C)N(C)C)CC3)C(=O)N3CCCC(N3)C(=O)OCC(C)(C)C2)C1, the IC50 (second compound 0.000949 µM) is reported as > 1 µM, the IC50 (second compound 0.003 µM) is reported as > 1 µM and the IC50 (second compound 0.00949 µM) is reported as > 1 µM. For the same compound, the IC50 (second compound 0.03 µM) was > 1 µM, the IC50 (second compound 0.0949 µM) was > 1 µM and the IC50 (second compound 0.3 µM) was > 1 µM. It also gave a viability, T/C [1] of 100%, a viability, T/C [2] of 107% and a viability, T/C [3] of 83.9%. The viability, T/C [4] was 112%, the viability, T/C [5] was 100% and the viability, T/C [6] was 54%. It also gave a viability, T/C [7] of 94.1%, a viability, T/C [8] of 95.4% and a viability, T/C [9] of 94.1%. For the same compound, the viability, T/C [10] was 105%, the viability, T/C [11] was 103% and the viability, T/C [12] was 71.7%. The viability, T/C [13] was 92.3%, the viability, T/C [14] was 84.2% and the viability, T/C [15] was 85.3%. It also gave a viability, T/C [16] of 90.4%, a viability, T/C [17] of 73.4% and a viability, T/C [18] of 54.6%. It also gave a viability, T/C [19] of 97.5%, a viability, T/C [20] of 90.5% and a viability, T/C [21] of 83.4%. For the same compound, the viability, T/C [22] was 78.6%, the viability, T/C [23] was 60.1% and the viability, T/C [24] was 66.3%. The viability, T/C [25] was 96.7%, the viability, T/C [26] was 80% and the viability, T/C [27] was 84.2%. It also gave a viability, T/C [28] of 67.3%, a viability, T/C [29] of 64.3% and a viability, T/C [30] of 58.6%. The viability, T/C [31] was 84%, the viability, T/C [32] was 84% and the viability, T/C [33] was 73.5%. The viability, T/C [34] was 62.1%, the viability, T/C [35] was 60.2% and the viability, T/C [36] was 54.6%.

`O=C(c1ccc(F)c(F)c1Nc1ccc(I)cc1F)N1CC(O)([C@@H]2CCCCN2)C1` + CCn1c(-c2cccnc2C(C)OC)c2c3cc(ccc31)N1CCOC(CC(NC(=O)C(C(C)C)N(C)C(=O)C3(F)CCN(C(=O)C#CC(C)(C)N(C)C)CC3)C(=O)N3CCCC(N3)C(=O)OCC(C)(C)C2)C1 gave an IC50 (second compound 0.000949 µM) of 0.378 µM, an IC50 (second compound 0.003 µM) of 0.881 µM and an IC50 (second compound 0.00949 µM) of 0.167 µM. It also gave an IC50 (second compound 0.03 µM) of 0.135 µM, an IC50 (second compound 0.0949 µM) of 0.114 µM and an IC50 (second compound 0.3 µM) of 0.0714 µM. For the same compound, the viability, T/C [1] was 107%, the viability, T/C [2] was 123% and the viability, T/C [3] was 82%. For the same compound, the viability, T/C [4] was 87.2%, the viability, T/C [5] was 52.4% and the viability, T/C [6] was 25.6%. For the same compound, the viability, T/C [7] was 106%, the viability, T/C [8] was 93.9% and the viability, T/C [9] was 90.3%. For the same compound, the viability, T/C [10] was 110%, the viability, T/C [11] was 74.9% and the viability, T/C [12] was 46.9%. It also gave a viability, T/C [13] of 85.6%, a viability, T/C [14] of 75.6% and a viability, T/C [15] of 78.3%. For the same compound, the viability, T/C [16] was 60.6%, the viability, T/C [17] was 36.7% and the viability, T/C [18] was 30.9%. It also gave a viability, T/C [19] of 88.8%, a viability, T/C [20] of 85.8% and a viability, T/C [21] of 71.8%. The viability, T/C [22] was 60.9%, the viability, T/C [23] was 28.4% and the viability, T/C [24] was 32.6%. It also gave a viability, T/C [25] of 87.6%, a viability, T/C [26] of 78.2% and a viability, T/C [27] of 72.2%. It also gave a viability, T/C [28] of 55.8%, a viability, T/C [29] of 27.1% and a viability, T/C [30] of 26.6%. It also gave a viability, T/C [31] of 82.9%, a viability, T/C [32] of 70% and a viability, T/C [33] of 67.3%. The viability, T/C [34] was 42.4%, the viability, T/C [35] was 31.4% and the viability, T/C [36] was 26.1%.
